Experiments:
Conditions in all cases: 72 h
HepG2 [1] = assay: drug sensitivity score (DSS) for viability; higher = more toxic; extreme values may be limits of the assay
Caco-2 [2] = assay: as above
U2OS [3] = assay: as above
Vero E6 [4] = assay: as above
Calu-3 [5] = assay: as above
HepG2 [6] = assay: cell viability relative to DMSO; higher = less toxic
Caco-2 [7] = assay: as above
U2OS [8] = assay: as above
Vero E6 [9] = assay: as above
Calu-3 [10] = assay: as above
HepG2 [11] = assay: relative viability EC50 (midpoint between 100% and the lowest measured viability); higher = less toxic
Caco-2 [12] = assay: as above
U2OS [13] = assay: as above
Vero E6 [14] = assay: as above
Calu-3 [15] = assay: as above

Structure (SMILES) | drug sensitivity score (HepG2 [1]) | drug sensitivity score (Caco-2 [2]) | drug sensitivity score (U2OS [3]) | drug sensitivity score (Vero E6 [4]) | drug sensitivity score (Calu-3 [5]) | cell viability (HepG2 [6]; 1 nM) [%] | cell viability (HepG2 [6]; 10 nM) [%] | cell viability (HepG2 [6]; 100 nM) [%] | cell viability (HepG2 [6]; 1000 nM) [%] | cell viability (HepG2 [6]; 10000 nM) [%] | cell viability (Caco-2 [7]; 1 nM) [%] | cell viability (Caco-2 [7]; 10 nM) [%] | cell viability (Caco-2 [7]; 100 nM) [%] | cell viability (Caco-2 [7]; 1000 nM) [%] | cell viability (Caco-2 [7]; 10000 nM) [%] | cell viability (U2OS [8]; 1 nM) [%] | cell viability (U2OS [8]; 10 nM) [%] | cell viability (U2OS [8]; 100 nM) [%] | cell viability (U2OS [8]; 1000 nM) [%] | cell viability (U2OS [8]; 10000 nM) [%] | cell viability (Vero E6 [9]; 1 nM) [%] | cell viability (Vero E6 [9]; 10 nM) [%] | cell viability (Vero E6 [9]; 100 nM) [%] | cell viability (Vero E6 [9]; 1000 nM) [%] | cell viability (Vero E6 [9]; 10000 nM) [%] | cell viability (Calu-3 [10]; 1 nM) [%] | cell viability (Calu-3 [10]; 10 nM) [%] | cell viability (Calu-3 [10]; 100 nM) [%] | cell viability (Calu-3 [10]; 1000 nM) [%] | cell viability (Calu-3 [10]; 10000 nM) [%] | relative viability EC50 (HepG2 [11]) [µM] | relative viability EC50 (Caco-2 [12]) [µM] | relative viability EC50 (U2OS [13]) [µM] | relative viability EC50 (Vero E6 [14]) [µM] | relative viability EC50 (Calu-3 [15]) [µM]
NS(=O)(=O)c1cc2c(cc1Cl)NC(CC1CCCC1)NS2(=O)=O (stereo not given) [cyclopenthiazide] | 0 | 0 | 0 | 0 | 0 | 111 | 103 | 101 | 99.1 | 102 | 102 | 106 | 90.4 | 98.6 | 90.4 | 100 | 104 | 98.8 | 107 | 96.6 | 102 | 91 | 98.9 | 94.9 | 99.9 | 96.8 | 105 | 97.6 | 97.7 | 96.4 | > 10 | > 10 | > 10 | > 10 | > 10
Cc1c(F)cccc1NC(=O)Nc1ccc(Cl)c(S(=O)(=O)[C@H]2CCCNC2)c1O [danirixin] | 0 | 0 | 0 | 0 | 0 | 94.8 | 93.1 | 103 | 94.7 | 106 | 99.3 | 104 | 93.4 | 99.4 | 95.9 | 99 | 104 | 95.4 | 98.8 | 98.8 | 106 | 106 | 106 | 98.2 | 100 | 84.6 | 88.3 | 91.8 | 93.1 | 95.6 | > 10 | > 10 | > 10 | > 10 | > 10
COc1cc(OC)nc(O[C@H](C(=O)O)C(OC)(c2ccccc2)c2ccccc2)n1 [darusentan] | 0 | 0 | 0 | 0 | 0 | 98.2 | 98.8 | 93.6 | 95.5 | 91.3 | 102 | 96.9 | 97.3 | 95.1 | 102 | 97.1 | 102 | 91 | 96.9 | 94.6 | 96.5 | 98.8 | 97.2 | 92.3 | 98.6 | 111 | 93.3 | 99.1 | 101 | 101 | > 10 | > 10 | > 10 | > 10 | > 10
Cc1c(C(N)=O)cc([N+](=O)[O-])cc1[N+](=O)[O-] [dinitolmide] | 0 | 0 | 0 | 0 | 0 | 104 | 104 | 106 | 99.7 | 102 | 101 | 97.6 | 102 | 95.1 | 105 | 111 | 105 | 105 | 93.5 | 92.3 | 102 | 101 | 98.8 | 98.3 | 97.4 | 99.4 | 105 | 101 | 100 | 103 | > 10 | > 10 | > 10 | > 10 | > 10
Cn1c(=O)c2c(ncn2CC(O)CO)n(C)c1=O (stereo not given) [dyphylline] | 0 | 0 | 0 | 0 | 0 | 102 | 106 | 97.1 | 107 | 104 | 104 | 110 | 104 | 98.9 | 107 | 107 | 108 | 105 | 98.8 | 110 | 100 | 102 | 105 | 98.7 | 105 | 92.7 | 99.6 | 109 | 96.4 | 101 | > 10 | > 10 | > 10 | > 10 | > 10

From the supplement of paper PMC13380429
